Measurements: ChEMBL document CHEMBL3046890, “Synthesis and Herbicidal Activity of Sulfonylureas; SL-950 and Its Related Compounds” (1995)

Tests used:
Format in all cases: functional
Conditions in all cases: read-out: GI
Zea mays = experiment: Post emergence phyototoxic activity against Zea mays (maize) plants assessed as inhibition of plant growth at 125 g ai/ha measured 22 to 37 days after compound application under greenhouse conditions
Triticum aestivum = experiment: Post emergence phyototoxic activity against Triticum aestivum (wheat) plants assessed as inhibition of plant growth at 125 g ai/ha measured 22 to 37 days after compound application under greenhouse conditions
Persicaria longiseta = experiment: Post-emergence herbicidal activity against Persicaria longiseta assessed as inhibition of weed growth at 125 g ai/ha measured 22 to 37 days after compound application under greenhouse conditions
Sida spinosa = experiment: Post-emergence herbicidal activity against Sida spinosa assessed as inhibition of weed growth at 125 g ai/ha measured 22 to 37 days after compound application under greenhouse conditions
Xanthium strumarium = experiment: Post emergence herbicidal activity against Xanthium strumarium (cocklebur) assessed as inhibition of weed growth at 125 g ai/ha measured 22 to 37 days after compound application under greenhouse conditions
Echinochloa crus-galli = experiment: Post emergence herbicidal activity against Echinochloa crus-galli (barnyard grass) assessed as inhibition of weed growth at 125 g ai/ha measured 22 to 37 days after compound application under greenhouse conditions
Ipomoea purpurea = experiment: Post emergence herbicidal activity against Ipomoea purpurea (common morning-glory) assessed as inhibition of weed growth at 125 g ai/ha measured 22 to 37 days after compound application under greenhouse conditions
Amaranthus viridis = experiment: Post-emergence herbicidal activity against Amaranthus viridis assessed as inhibition of weed growth at 125 g ai/ha measured 22 to 37 days after compound application under greenhouse conditions

C=C(C)NC(=O)c1cccnc1S(=O)(=O)NC(=O)Nc1nc(OC)cc(OC)n1
inhibition of growth at 125 g/ha (Zea mays): 0%

COc1cc(OC)nc(NC(=O)NS(=O)(=O)c2ncccc2C(=O)N2CCCCC2)n1
inhibition of growth at 125 g/ha (Zea mays): 0%

COc1cc(C)nc(NC(=O)NS(=O)(=O)c2ncccc2C(=O)N(C)C)n1
inhibition of growth at 125 g/ha (Zea mays): 0%

CN(C)C(=O)c1cccnc1S(=O)(=O)NC(=O)Nc1nc(OC(F)F)cc(OC(F)F)n1
inhibition of growth at 125 g/ha (Triticum aestivum): 0% | inhibition of growth at 125 g/ha (Persicaria longiseta): 0% | inhibition of growth at 125 g/ha (Sida spinosa): 0% | inhibition of growth at 125 g/ha (Xanthium strumarium): 0%

COc1nc(C)nc(NC(=O)NS(=O)(=O)c2ncccc2C(=O)N(C)C)n1
inhibition of growth at 125 g/ha (Triticum aestivum): 0% | inhibition of growth at 125 g/ha (Zea mays): 0% | inhibition of growth at 125 g/ha (Echinochloa crus-galli): 0% | inhibition of growth at 125 g/ha (Sida spinosa): 0% | inhibition of growth at 125 g/ha (Ipomoea purpurea): 0%

COc1cc(OC)nc(NC(=O)NS(=O)(=O)c2ncccc2C(=O)N(C)c2ccc(Cl)cc2)n1
inhibition of growth at 125 g/ha (Zea mays): 0% | inhibition of growth at 125 g/ha (Xanthium strumarium): 100%

COc1nc(NC(=O)NS(=O)(=O)c2ncccc2C(=O)N(C)C)nc(OC)n1
inhibition of growth at 125 g/ha (Triticum aestivum): 0% | inhibition of growth at 125 g/ha (Zea mays): 0% | inhibition of growth at 125 g/ha (Persicaria longiseta): 0% | inhibition of growth at 125 g/ha (Echinochloa crus-galli): 0% | inhibition of growth at 125 g/ha (Amaranthus viridis): 0% | inhibition of growth at 125 g/ha (Sida spinosa): 0% | inhibition of growth at 125 g/ha (Ipomoea purpurea): 0%

CCOc1cc(OC)nc(NC(=O)NS(=O)(=O)c2ncccc2C(=O)N(C)C)n1
inhibition of growth at 125 g/ha (Zea mays): 0% | inhibition of growth at 125 g/ha (Amaranthus viridis): 100%

COc1cc(OC)nc(NC(=O)NS(=O)(=O)c2ncccc2C(=O)NC2CC2)n1
inhibition of growth at 125 g/ha (Zea mays): 0% | inhibition of growth at 125 g/ha (Echinochloa crus-galli): 100%

CCCCNC(=O)c1cccnc1S(=O)(=O)NC(=O)Nc1nc(OC)cc(OC)n1
inhibition of growth at 125 g/ha (Zea mays): 0%

CSc1cc(SC)nc(NC(=O)NS(=O)(=O)c2ncccc2C(=O)N(C)C)n1
inhibition of growth at 125 g/ha (Zea mays): 0% | inhibition of growth at 125 g/ha (Persicaria longiseta): 0% | inhibition of growth at 125 g/ha (Echinochloa crus-galli): 0% | inhibition of growth at 125 g/ha (Amaranthus viridis): 0% | inhibition of growth at 125 g/ha (Sida spinosa): 0% | inhibition of growth at 125 g/ha (Xanthium strumarium): 0%

COc1cc(OC)nc(NC(=O)NS(=O)(=O)c2ncccc2C(=O)NCC(F)(F)F)n1
inhibition of growth at 125 g/ha (Zea mays): 0%

COc1cc(OC)nc(NC(=O)NS(=O)(=O)c2ncccc2C(=O)N(C)c2ccc(F)cc2F)n1
inhibition of growth at 125 g/ha (Triticum aestivum): 100% | inhibition of growth at 125 g/ha (Sida spinosa): 0%

C=CCNC(=O)c1cccnc1S(=O)(=O)NC(=O)Nc1nc(OC)cc(OC)n1
inhibition of growth at 125 g/ha (Zea mays): 0%

CCNC(=O)c1cccnc1S(=O)(=O)NC(=O)Nc1nc(OC)cc(OC)n1
inhibition of growth at 125 g/ha (Zea mays): 0%

COC(=O)CNC(=O)c1cccnc1S(=O)(=O)NC(=O)Nc1nc(OC)cc(OC)n1
inhibition of growth at 125 g/ha (Triticum aestivum): 0% | inhibition of growth at 125 g/ha (Zea mays): 0% | inhibition of growth at 125 g/ha (Echinochloa crus-galli): 0% | inhibition of growth at 125 g/ha (Amaranthus viridis): 0% | inhibition of growth at 125 g/ha (Sida spinosa): 0% | inhibition of growth at 125 g/ha (Ipomoea purpurea): 0%

COc1cc(OC(F)F)nc(NC(=O)NS(=O)(=O)c2ncccc2C(=O)N(C)C)n1
inhibition of growth at 125 g/ha (Zea mays): 0%

CCC(=O)N(CC)C(=O)c1cccnc1S(=O)(=O)NC(=O)Nc1nc(OC)cc(OC)n1
inhibition of growth at 125 g/ha (Zea mays): 0% | inhibition of growth at 125 g/ha (Amaranthus viridis): 100%

Cc1cc(C)nc(NC(=O)NS(=O)(=O)c2ncccc2C(=O)N(C)C)n1
inhibition of growth at 125 g/ha (Triticum aestivum): 0% | inhibition of growth at 125 g/ha (Zea mays): 0% | inhibition of growth at 125 g/ha (Persicaria longiseta): 0% | inhibition of growth at 125 g/ha (Echinochloa crus-galli): 0% | inhibition of growth at 125 g/ha (Sida spinosa): 0% | inhibition of growth at 125 g/ha (Ipomoea purpurea): 0%

CNC(=O)c1cccnc1S(=O)(=O)NC(=O)Nc1nc(OC)cc(OC)n1
inhibition of growth at 125 g/ha (Zea mays): 0% | inhibition of growth at 125 g/ha (Persicaria longiseta): 100% | inhibition of growth at 125 g/ha (Echinochloa crus-galli): 100% | inhibition of growth at 125 g/ha (Amaranthus viridis): 100% | inhibition of growth at 125 g/ha (Xanthium strumarium): 100%

COc1cc(Cl)nc(NC(=O)NS(=O)(=O)c2ncccc2C(=O)N(C)C)n1
inhibition of growth at 125 g/ha (Zea mays): 0% | inhibition of growth at 125 g/ha (Sida spinosa): 0%

COc1cc(OC)nc(NC(=O)NS(=O)(=O)c2ncccc2C(=O)N2CCOCC2)n1
inhibition of growth at 125 g/ha (Triticum aestivum): 0% | inhibition of growth at 125 g/ha (Zea mays): 0%

CCN(C)C(=O)c1cccnc1S(=O)(=O)NC(=O)Nc1nc(OC)cc(OC)n1
inhibition of growth at 125 g/ha (Zea mays): 0% | inhibition of growth at 125 g/ha (Echinochloa crus-galli): 100% | inhibition of growth at 125 g/ha (Xanthium strumarium): 100%

COC(=O)N(C)C(=O)c1cccnc1S(=O)(=O)NC(=O)Nc1nc(OC)cc(OC)n1
inhibition of growth at 125 g/ha (Zea mays): 0%

COc1cc(OC)nc(NC(=O)NS(=O)(=O)c2ncccc2C(=O)N(C)CC(F)(F)F)n1
inhibition of growth at 125 g/ha (Zea mays): 0%

COc1cc(OC)nc(NC(=O)NS(=O)(=O)c2ncccc2C(=O)N(C)c2ccccc2)n1
inhibition of growth at 125 g/ha (Zea mays): 0%

COc1cc(OC)nc(NC(=O)NS(=O)(=O)c2ncccc2C(=O)N(C)OC)n1
inhibition of growth at 125 g/ha (Triticum aestivum): 100% | inhibition of growth at 125 g/ha (Zea mays): 0% | inhibition of growth at 125 g/ha (Echinochloa crus-galli): 100% | inhibition of growth at 125 g/ha (Amaranthus viridis): 100%

COc1cc(SC)nc(NC(=O)NS(=O)(=O)c2ncccc2C(=O)N(C)C)n1
inhibition of growth at 125 g/ha (Zea mays): 0% | inhibition of growth at 125 g/ha (Amaranthus viridis): 100%
